Target: T1, hPRLR (Homo sapiens, UniProt P16471)
T1 construct: T84 cells express high levels of hPRLR relative to hGHR (>1300:1); host or cells: T84 (human colon cancer), MALME-3M (human melanoma)
T1 sequence (P16471 25-622): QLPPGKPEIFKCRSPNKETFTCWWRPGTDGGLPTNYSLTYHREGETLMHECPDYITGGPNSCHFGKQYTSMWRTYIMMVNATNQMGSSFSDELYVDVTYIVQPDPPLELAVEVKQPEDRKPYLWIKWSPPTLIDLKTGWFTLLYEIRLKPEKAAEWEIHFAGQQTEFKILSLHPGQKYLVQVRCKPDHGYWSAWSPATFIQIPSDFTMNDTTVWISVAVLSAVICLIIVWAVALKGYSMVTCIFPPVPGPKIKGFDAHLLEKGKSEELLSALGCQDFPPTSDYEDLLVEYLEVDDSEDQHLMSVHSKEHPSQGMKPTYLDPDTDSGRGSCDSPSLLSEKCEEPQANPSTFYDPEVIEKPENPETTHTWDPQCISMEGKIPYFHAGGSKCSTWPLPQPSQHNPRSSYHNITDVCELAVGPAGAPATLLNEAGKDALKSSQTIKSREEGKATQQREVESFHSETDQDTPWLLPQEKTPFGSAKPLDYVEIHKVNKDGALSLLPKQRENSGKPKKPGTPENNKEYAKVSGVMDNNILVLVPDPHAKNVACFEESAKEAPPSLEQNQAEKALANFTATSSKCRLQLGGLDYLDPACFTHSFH
Experiment: hPRL-induced pSTAT5 in MALME-3M cells, Western blot
Format: cell-based
Settings: 2.5 nM hPRL, 20 min, S1H concentration not given
Protocol: SK-MEL-28, MALME-3M, and T84 cells were grown and maintained in Eagle's Minimal Essential Medium. IM9 and L cells were grown in RPMI-1640 media and Dulbecco's modified Eagle's medium, respectively. All growth media was supplemented with 10% fetal bovine serum and 1× antibiotic-antimycotic […] solution. Cells were grown at 37 °C under a 5% CO2 atmosphere in a humidified incubator, and growth media was replaced every 48 h during incubation. No hGH was present in or added to the growth media unless specifically indicated. […]
Following treatment, the cells were harvested at the indicated time points, and the total protein was extracted. […] Sample protein concentration was quantified using a Bradford assay with bovine serum albumin as the protein standard. Absorbance at 595 nm was measured using a Spectramax 250 multimode plate reader (Molecular Devices) and processed using SoftmaxPro v4.7.1 software.
Cytosolic fractions from treated cells were thawed on ice, and 80 μg protein was loaded onto polyacrylamide gels for separation by SDS-PAGE. […] Chemiluminescence signals were detected using a GelDoc (BioRad) fluorescence imager. […]

inhibition of hPRL-induced pSTAT5: 49%
Compound: CC[C@H](C)[C@H](NC(=O)[C@H](Cc1ccc(O)cc1)NC(C)=O)C(=O)N1CCC[C@H]1C(=O)N[C@@H](CCCCN)C(=O)N[C@@H](CCC(=O)O)C(=O)N[C@@H](CCC(N)=O)C(=O)N[C@@H](CCCCN)C(=O)N[C@@H](Cc1ccc(O)cc1)C(=O)N[C@@H](CO)C(=O)N[C@@H](Cc1ccccc1)C(=O)N[C@@H](CC(C)C)C(=O)N[C@@H](CCC(N)=O)C(=O)N[C@@H](CC(N)=O)C(=O)N1CCC[C@H]1C(=O)N[C@@H](CCC(N)=O)C(=O)N[C@H](C(N)=O)[C@@H](C)O [S1H]

From PMC8086144, “A novel peptide antagonist of the human growth hormone receptor” (The Journal of Biological Chemistry, 2021)
